US11739098B2 (BRISTOL-MYERS SQUIBB COMPANY, priority 2017, dated 2023)

Experiments:
Type in all cases: cell-based
human TLR9 = molecular target: T1, human TLR9 (Homo sapiens, UniProt Q9NR96); test: TLR9 inhibition reporter assay (HEK-Blue cells, SEAP reporter, ODN2006 stimulation); conditions: HEK-Blue cells overexpressing human TLR9, SEAP reporter, ODN2006 5 nM
T1 construct: host or cells: HEK-Blue cells (HEK293-derived reporter line)
T1 sequence (Q9NR96 26-1032): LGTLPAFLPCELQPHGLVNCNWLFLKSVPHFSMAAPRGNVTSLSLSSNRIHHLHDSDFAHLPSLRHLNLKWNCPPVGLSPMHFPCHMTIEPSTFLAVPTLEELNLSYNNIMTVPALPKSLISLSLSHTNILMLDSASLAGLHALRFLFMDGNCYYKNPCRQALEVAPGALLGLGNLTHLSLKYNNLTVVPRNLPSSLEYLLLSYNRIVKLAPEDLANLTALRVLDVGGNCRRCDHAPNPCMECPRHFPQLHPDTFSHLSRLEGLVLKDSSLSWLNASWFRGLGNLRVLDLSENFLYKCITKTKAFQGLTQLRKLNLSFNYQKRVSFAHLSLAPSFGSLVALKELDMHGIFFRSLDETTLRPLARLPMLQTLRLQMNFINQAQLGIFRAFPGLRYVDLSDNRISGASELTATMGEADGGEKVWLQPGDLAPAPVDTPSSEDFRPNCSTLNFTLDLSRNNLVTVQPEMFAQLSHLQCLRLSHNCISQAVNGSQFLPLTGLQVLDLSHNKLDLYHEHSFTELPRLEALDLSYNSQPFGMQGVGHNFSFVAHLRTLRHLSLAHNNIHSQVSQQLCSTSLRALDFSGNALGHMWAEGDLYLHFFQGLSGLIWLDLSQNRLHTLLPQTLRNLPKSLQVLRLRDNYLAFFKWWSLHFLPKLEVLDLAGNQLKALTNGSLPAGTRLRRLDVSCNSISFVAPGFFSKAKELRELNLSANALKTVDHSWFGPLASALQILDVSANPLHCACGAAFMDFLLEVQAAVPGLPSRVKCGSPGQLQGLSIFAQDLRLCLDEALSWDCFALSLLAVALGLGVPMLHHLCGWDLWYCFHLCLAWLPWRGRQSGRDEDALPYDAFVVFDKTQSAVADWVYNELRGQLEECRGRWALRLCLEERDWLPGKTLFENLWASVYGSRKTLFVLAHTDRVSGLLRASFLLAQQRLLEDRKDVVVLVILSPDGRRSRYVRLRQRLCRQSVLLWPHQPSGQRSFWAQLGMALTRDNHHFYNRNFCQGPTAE
Outline: (§1)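 Cells seeded per well (15000 TLR7, 20,000 TLR8, 25,000 TLR9); compound added over 0.05 nM–50 μM for 30 min at room temperature; agonist added (TLR7 gardiquimod 7.5 μM, TLR8 R848 15.9 μM, TLR9 ODN2006 5 nM); 22 h at 37 °C; SEAP measured; percent inhibition calculated.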

human TLR7 = molecular target: T2, human TLR7 (Homo sapiens, UniProt Q9NYK1); test: TLR7 inhibition reporter assay (HEK-Blue cells, SEAP reporter, gardiquimod stimulation); conditions: HEK-Blue cells overexpressing human TLR7, SEAP reporter, gardiquimod 7.5 μM
T2 construct: host or cells: HEK-Blue cells (HEK293-derived reporter line)
T2 sequence (Q9NYK1 27-1049): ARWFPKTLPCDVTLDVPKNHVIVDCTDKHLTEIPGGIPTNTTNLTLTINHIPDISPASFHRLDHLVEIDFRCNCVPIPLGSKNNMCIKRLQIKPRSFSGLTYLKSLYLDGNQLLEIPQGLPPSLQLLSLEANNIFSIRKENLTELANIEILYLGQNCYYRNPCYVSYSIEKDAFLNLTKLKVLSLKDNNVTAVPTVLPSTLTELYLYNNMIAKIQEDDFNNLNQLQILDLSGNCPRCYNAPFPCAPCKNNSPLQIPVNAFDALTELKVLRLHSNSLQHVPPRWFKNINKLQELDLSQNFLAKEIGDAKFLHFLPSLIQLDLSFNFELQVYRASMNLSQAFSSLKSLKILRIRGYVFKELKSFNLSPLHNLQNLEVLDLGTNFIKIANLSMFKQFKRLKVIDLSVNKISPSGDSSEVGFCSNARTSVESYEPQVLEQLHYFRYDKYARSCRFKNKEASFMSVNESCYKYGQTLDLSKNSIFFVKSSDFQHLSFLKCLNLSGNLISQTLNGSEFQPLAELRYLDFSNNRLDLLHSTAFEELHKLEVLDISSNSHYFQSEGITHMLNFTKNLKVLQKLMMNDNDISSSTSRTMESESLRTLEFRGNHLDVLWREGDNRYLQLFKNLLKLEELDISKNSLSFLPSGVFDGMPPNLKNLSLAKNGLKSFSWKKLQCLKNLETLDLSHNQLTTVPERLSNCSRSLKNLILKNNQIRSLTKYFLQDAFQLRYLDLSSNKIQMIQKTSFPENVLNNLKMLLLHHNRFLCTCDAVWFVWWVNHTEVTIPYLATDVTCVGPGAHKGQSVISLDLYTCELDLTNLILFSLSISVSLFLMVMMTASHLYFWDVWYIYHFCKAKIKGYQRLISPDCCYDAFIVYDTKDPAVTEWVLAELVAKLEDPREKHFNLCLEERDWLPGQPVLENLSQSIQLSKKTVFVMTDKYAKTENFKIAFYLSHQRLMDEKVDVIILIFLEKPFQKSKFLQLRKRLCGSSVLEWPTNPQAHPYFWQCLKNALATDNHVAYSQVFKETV
Outline: as §1

human TLR8 = molecular target: T3, human TLR8 (Homo sapiens, UniProt Q9NR97); test: TLR8 inhibition reporter assay (HEK-Blue cells, SEAP reporter, R848 stimulation); conditions: HEK-Blue cells overexpressing human TLR8, SEAP reporter, R848 15.9 μM
T3 construct: host or cells: HEK-Blue cells (HEK293-derived reporter line)
T3 sequence (Q9NR97 27-1041): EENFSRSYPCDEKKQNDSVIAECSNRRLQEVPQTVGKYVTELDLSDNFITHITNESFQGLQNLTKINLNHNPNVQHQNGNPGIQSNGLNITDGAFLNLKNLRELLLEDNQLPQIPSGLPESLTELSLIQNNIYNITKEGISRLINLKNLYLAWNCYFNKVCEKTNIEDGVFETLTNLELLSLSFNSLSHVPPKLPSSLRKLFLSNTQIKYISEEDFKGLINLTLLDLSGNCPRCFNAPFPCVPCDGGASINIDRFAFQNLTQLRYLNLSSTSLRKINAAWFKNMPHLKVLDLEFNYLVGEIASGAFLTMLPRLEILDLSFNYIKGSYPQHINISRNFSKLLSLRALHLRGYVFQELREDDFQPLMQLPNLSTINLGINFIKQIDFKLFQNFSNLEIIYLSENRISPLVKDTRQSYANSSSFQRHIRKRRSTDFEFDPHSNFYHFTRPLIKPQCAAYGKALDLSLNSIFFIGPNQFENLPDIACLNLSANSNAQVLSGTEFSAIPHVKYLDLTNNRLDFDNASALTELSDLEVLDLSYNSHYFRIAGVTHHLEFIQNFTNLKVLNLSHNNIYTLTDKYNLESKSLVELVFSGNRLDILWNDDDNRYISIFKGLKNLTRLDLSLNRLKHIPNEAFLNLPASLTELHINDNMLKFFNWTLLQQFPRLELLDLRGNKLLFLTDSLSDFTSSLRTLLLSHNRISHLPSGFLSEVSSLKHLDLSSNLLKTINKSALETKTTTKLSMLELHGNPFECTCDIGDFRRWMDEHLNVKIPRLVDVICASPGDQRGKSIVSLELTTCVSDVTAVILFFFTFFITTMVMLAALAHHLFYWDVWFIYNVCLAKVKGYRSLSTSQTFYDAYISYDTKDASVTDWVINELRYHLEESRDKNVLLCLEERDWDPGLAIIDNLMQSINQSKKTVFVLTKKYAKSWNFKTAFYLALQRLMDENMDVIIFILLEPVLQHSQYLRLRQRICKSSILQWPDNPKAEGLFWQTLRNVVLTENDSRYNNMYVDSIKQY
Outline: as §1

SMILES	IC50 (human TLR9) [nM]	IC50 (human TLR7) [nM]	IC50 (human TLR8) [nM]
CC(=O)N[C@H]1CCN(CC(=O)N2CCC(c3ccc4[nH]c(-c5ccnc6[nH]ncc56)c(C(C)C)c4c3)CC2)C1 [Example 581, (S)—N-(1-(2-(4-(3-isopropyl-2-(1H-pyrazolo[3,4-b]pyridin-4-yl)-1H-indol-5-yl)piperidin-1-yl)-2-oxoethyl)pyrrolidin-3-yl)acetamide]	1000 to 50000	< 100	< 100
Cc1cc(-c2[nH]c3ccc(C4CCN(C(=O)C[C@H](C)O)CC4)cc3c2C(C)C)cc2ncnn12 [Example 600, (S)-3-hydroxy-1-(4-(3-isopropyl-2-(5-methyl-[1,2,4]triazolo[1,5-a]pyridin-7-yl)-1H-indol-5-yl)piperidin-1-yl)butan-1-one]	1000 to 50000	< 100	100 to 1000
CNC(=O)CN1CCC(c2ccc3[nH]c(-c4cc(C(C)(C)O)c5nccn5c4)c(C(C)C)c3c2)CC1 [Example 342, 2-(4-(2-(8-(2-hydroxypropan-2-yl)imidazo[1,2-a]pyridin-6-yl)-3-isopropyl-1H-indol-5-yl)piperidin-1-yl)-N-methylacetamide]	100 to 1000	< 100	100 to 1000
CNC(=O)CN1CCC(c2ccc3[nH]c(-c4cnc5ncnn5c4)c(C(C)C)c3c2)CC1 [Example 423, 2-(4-(2-([1,2,4]triazolo[1,5-a]pyrimidin-6-yl)-3-isopropyl-1H-indol-5-yl)piperidin-1-yl)-N-methylacetamide]	1000 to 50000	< 100	< 100
COc1cc(-c2[nH]c3ccc(C4CCN(CC(N)=O)CC4)cc3c2C(C)C)nn2ncnc12 [Example 284, 2-(4-(3-isopropyl-2-(8-methoxy-[1,2,4]triazolo[1,5-b]pyridazin-6-yl)-1H-indol-5-yl)piperidin-1-yl)acetamide]	1000 to 50000	< 100	< 100
Cc1cc(-c2[nH]c3ccc(C4CCN(C(=O)CN(C)C(C)(C)C)CC4)cc3c2C(C)C)cn2nnnc12 [Example 481, 2-(tert-butyl(methyl)amino)-1-(4-(3-isopropyl-2-(8-methyltetrazolo[1,5-a]pyridin-6-yl)-1H-indol-5-yl)piperidin-1-yl)ethan-1-one]	1000 to 50000	< 100	< 100
Cc1cc(-c2[nH]c3ccc(C4CCN(C(=O)CN(C)C)CC4)cc3c2C(C)C)cn2nnnc12 [Example 477, 2-(dimethylamino)-1-(4-(3-isopropyl-2-(8-methyltetrazolo[1,5-a]pyridin-6-yl)-1H-indol-5-yl)piperidin-1-yl)ethan-1-one]	1000 to 50000	< 100	< 100
Cc1cn2cc(-c3[nH]c4ccc(C5CCNCC5)cc4c3C(C)C)c(C)cc2n1 [Example 122, 6-(3-isopropyl-5-(piperidin-4-yl)-1H-indol-2-yl)-2,7-dimethylimidazo[1,2-a]pyridine]	100 to 1000	< 100	100 to 1000
CC1CC(N2CCC(c3ccc4[nH]c(-c5ccnc6[nH]ncc56)c(C(C)C)c4c3)CC2)CCN1 (stereo not drawn) [Example 820, 4-(3-isopropyl-5-(2′-methyl-[1,4′-bipiperidin]-4-yl)-1H-indol-2-yl)-1H-pyrazolo[3,4-b]pyridine]	< 100	< 100	< 100
CC(C)c1c(-c2ccc3nccn3c2)[nH]c2ccc(C3CCNCC3)cc12 [Example 188, 6-(3-isopropyl-5-(piperidin-4-yl)-1H-indol-2-yl)imidazo[1,2-a]pyridine]	100 to 1000	< 100	100 to 1000
CC(C)c1c(-c2ccnc3[nH]ncc23)[nH]c2ccc(C3CCN(C4CCNCC4O)CC3)cc12 (stereo not drawn) [Example 804, 4-(3-isopropyl-2-(1H-pyrazolo[3,4-b]pyridin-4-yl)-1H-indol-5-yl)-[1,4′-bipiperidin]-3′-ol]	100 to 1000	< 100	< 100
Cc1cc(-c2[nH]c3ccc(C4CCN(C(=O)CN5[C@@H]6CC[C@H]5COC6)CC4)cc3c2C(C)C)cn2nnnc12 [Example 479, 2-((1R,5S)-3-oxa-8-azabicyclo[3.2.1]octan-8-yl)-1-(4-(3-isopropyl-2-(8-methyltetrazolo[1,5-a]pyridin-6-yl)-1H-indol-5-yl)piperidin-1-yl)ethan-1-one]	1000 to 50000	< 100	< 100
Cc1ccnc2[nH]cc(-c3[nH]c4ccc(C5CCNCC5)cc4c3C(C)C)c12 [Example 36, 3-(3-isopropyl-5-(piperidin-4-yl)-1H-indol-2-yl)-4-methyl-1H-pyrrolo[2,3-b]pyridine]	100 to 1000	< 100	< 100
Cc1cc(-c2[nH]c3ccc(C4CCN(CC(C)(C)O)CC4)cc3c2C(C)C)cn2ccnc12 [Example 774, 1-(4-(3-isopropyl-2-(8-methylimidazo[1,2-a]pyridin-6-yl)-1H-indol-5-yl)piperidin-1-yl)-2-methylpropan-2-ol]	100 to 1000	< 100	< 100
